We go through seven molecules from paper PMC3794980, “Identification of Conserved and HLA Promiscuous DENV3 T-Cell Epitopes” (PLoS Neglected Tropical Diseases, 2013).

Targets include DRB1*0802 (Homo sapiens, UniProt P01903+P01911, A100R/A103L/A169T/F76Y/H45Y/I96F/K41T/L162R/M171V/P40S/Q125H/Q178H/Q39Y/Q99D/R218S/R42G/S66Y/V115G/W38E); DRB1*1302 (Homo sapiens, UniProt P01903+P01911, A100E/A169T/K41T/L162R/M171V/P40S/Q125H/Q178H/Q39Y/Q99D/R42S/S66N/T262R/V115G/W38E/Y61H); DRB4*0101 (Homo sapiens, UniProt P01903+P13762, G164S); DRB1*1101 (Homo sapiens, UniProt P01903+P01911, A100R/A169T/A87E/I96F/K41T/L162R/M171V/P40S/Q125H/Q178H/Q39Y/Q99D/R42S/S66Y/T262R/V115G/W38E); DRB1*0404 (Homo sapiens, UniProt P01903+P01911, A100R/A169T/F76Y/I96L/K127E/L162R/M171V/N62H/P40V/Q125Y/R42H/S133A/S149N/S66Y/V209L/W38E); DRB3*0101 (Homo sapiens, UniProt P01903+P79483); DRB1*0101 (Homo sapiens, UniProt P01903+P01911, A100R/D57E/F55L/F60I/F76Y/I96L/L162R/M171V/P40L/Q125E/R42F/V115G/Y59C); DRB1*0405 (Homo sapiens, UniProt P01903+P01911, A100R/A169T/D86S/F76Y/I96L/K127E/L162R/M171V/N62H/P40V/Q125Y/R42H/S133A/S149N/S66Y/V115G/V209L/W38E); DRB1*0301 (Homo sapiens, UniProt P01903+P01911, A100K/A102G/A103R/A169T/F55Y/I96L/K41T/L162R/M171V/P40S/Q125H/Q178H/Q39Y/R42S/S66N/T106N/T262R/W38E/Y61H); DRB5*0101 (Homo sapiens, UniProt P01903+Q30154); DRB1*0401 (Homo sapiens, UniProt P01903+P01911, A100K/A169T/F76Y/I96L/K127E/L162R/M171V/N62H/P40V/Q125Y/R42H/S133A/S149N/S66Y/V115G/V209L/W38E); DRB1*0701 (Homo sapiens, UniProt P01903+P01911, A100R/A102G/A103Q/D57E/D86V/E43K/F76Y/K127E/L162R/M171V/P40G/Q125H/Q99D/R33Q/R42Y/R54Q/S133A/S66F/T210M/V115G/Y107V/Y59L/Y89S); DRB1*0901 (Homo sapiens, UniProt P01903+P01911, A100R/A103E/D57H/D86V/F55Y/F60I/F76Y/I96F/K127E/L162R/M171V/P40D/Q125H/Q99R/R33Q/R42F/S133A/S66N/T210M/V115G/W38K/Y107V/Y59G/Y89S); DRB1*1501 (Homo sapiens, UniProt P01903+P01911).

What all share (test): biochemical
Format in all cases: binding

The mark [1] stands for this setting: competitive inhibition of radiolabeled standard peptide, '-' distinct from ND, read-out: Binding Affinity (nM) DRB1*1302.
Setting [2] is: competitive inhibition of radiolabeled standard peptide, '-' distinct from ND, read-out: Binding Affinity (nM) DRB1*0901.

Read-outs that look alike come from different tables or passages of the source.

Sequence of DRB1*1101 (P01903 26-254, other chains not shown): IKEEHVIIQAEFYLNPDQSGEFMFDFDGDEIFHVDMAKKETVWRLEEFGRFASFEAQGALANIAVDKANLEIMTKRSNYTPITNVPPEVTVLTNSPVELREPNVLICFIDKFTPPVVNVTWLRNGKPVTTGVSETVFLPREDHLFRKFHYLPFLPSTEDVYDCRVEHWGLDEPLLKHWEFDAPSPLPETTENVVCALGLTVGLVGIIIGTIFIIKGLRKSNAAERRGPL
Sequence of DRB1*0301 (P01903 26-254, other chains not shown): as above
Sequence of DRB1*1302 (P01903 26-254 limits assumed, other chains not shown): as the sequence (P01903 26-254, other chains not shown) above

Regarding `CSCC[C@H](NC(=O)[C@@H](NC(=O)[C@H](CCC(N)=O)NC(=O)[C@H](Cc1ccccc1)NC(=O)[C@H](CC(N)=O)NC(=O)[C@H](CCCCN)NC(=O)[C@@H]1CCCN1C(=O)[C@@H](N)CC(N)=O)[C@@H](C)O)C(=O)N1CCC[C@H]1C(=O)NCC(=O)N[C@H](C(=O)N[C@@H](Cc1ccccc1)C(=O)N[C@@H](CCC(N)=O)C(=O)N[C@H](C(=O)N[C@H](C(=O)O)[C@@H](C)O)[C@@H](C)O)[C@@H](C)O` [NS3 105-119], the IC50 on DRB1*0802 stood at 175 nM; against DRB1*1302, 2390 nM; against DRB4*0101, 843 nM; against DRB1*1101, 86 nM; against DRB1*0404, 39 nM; against DRB3*0101 it was 2530 nM. Further, the IC50 came out at 49 nM at DRB1*0101; 96 nM at DRB1*0405; 11600 nM against DRB1*0301; 177 nM against DRB5*0101; 5.4 nM on DRB1*0401; 2790 nM on DRB1*0701. This molecule had an IC50 against DRB1*0901 of 407 nM.

`CC[C@H](C)[C@H](NC(=O)[C@H](C)N)C(=O)N[C@@H](CCC(N)=O)C(=O)N[C@@H](CCC(N)=O)C(=O)N[C@H](C(=O)N[C@@H](CCCNC(=N)N)C(=O)N[C@@H](CO)C(=O)N[C@@H](CC(C)C)C(=O)N[C@H](C(=O)NCC(=O)N[C@@H](CC(N)=O)C(=O)N[C@@H](CCC(=O)O)C(=O)N[C@@H](CCC(=O)O)C(=O)N[C@@H](Cc1ccccc1)C(=O)N[C@@H](CC(C)C)C(=O)N[C@@H](CC(=O)O)C(=O)N[C@@H](Cc1ccc(O)cc1)C(=O)O)[C@@H](C)CC)C(C)C` [NS5 866-882]: the IC50 amounted to 543 nM on DRB1*1302; 2020 nM against DRB4*0101; 421 nM on DRB1*1101; 8090 nM at DRB3*0101; 148 nM on DRB1*1501; 4.3 nM on DRB1*0101. Also, the IC50 amounted to 178 nM against DRB1*0301, 12 nM against DRB1*0401 and 66 nM against DRB1*0901.

For `CC[C@H](C)[C@H](NC(=O)[C@H](CCC(=O)O)NC(=O)CNC(=O)[C@@H](NC(=O)[C@@H](NC(=O)[C@@H](NC(=O)[C@H](CCC(N)=O)NC(=O)[C@H](Cc1ccccc1)NC(=O)[C@@H](NC(=O)CNC(=O)[C@@H]1CCCN1C(=O)[C@H](CCSC)NC(=O)[C@@H](NC(=O)[C@H](CCC(N)=O)NC(=O)[C@@H](N)Cc1ccccc1)[C@@H](C)O)[C@@H](C)O)[C@@H](C)O)[C@@H](C)O)[C@@H](C)O)C(=O)O` [NS3 109-123], the IC50 against DRB1*0802 was 557 nM; at DRB1*1302 it was 7040 nM; against DRB1*1101, 3860 nM; against DRB1*0404, 961 nM; against DRB3*0101, 4140 nM; against DRB1*1501 it was 2180 nM. Also, the IC50 against DRB1*0101 stood at 148 nM; at DRB1*0301 it was 16400 nM; on DRB5*0101, 2750 nM; on DRB1*0401, 222 nM; at DRB1*0701 it was 1020 nM; against DRB1*0901, 1850 nM.

Regarding `CC[C@H](C)[C@H](NC(=O)[C@H](CCCCN)NC(=O)[C@H](C)NC(=O)[C@H](CCCCN)NC(=O)CNC(=O)[C@H](Cc1c[nH]c2ccccc12)NC(=O)[C@@H](N)[C@@H](C)O)C(=O)N[C@H](C(=O)N[C@H](C(=O)N[C@@H](C)C(=O)N[C@@H](CCC(=O)O)C(=O)N[C@H](C(=O)N[C@@H](CCC(N)=O)C(=O)N[C@@H](CC(N)=O)C(=O)N[C@@H](CO)C(=O)O)[C@@H](C)O)[C@@H](C)O)C(C)C` [NS1 117-131], the IC50 at DRB1*1302 (setting [1]) stood at 1240 nM; against DRB1*1101 it was 18200 nM; against DRB1*0404, 695 nM; at DRB3*0101 it was 534 nM; at DRB1*1501, 3750 nM; against DRB1*0101 it was 1090 nM. Moreover, the IC50 against DRB1*0405 was 285 nM; at DRB1*0301, 4160 nM; against DRB5*0101, 3930 nM; against DRB1*0401, 28 nM; against DRB1*0701, 6690 nM; at DRB1*0901 (setting [2]), 2630 nM.

`CC[C@H](C)[C@H](NC(=O)[C@@H]1CCCN1C(=O)[C@H](CC(C)C)NC(=O)CNC(=O)[C@@H](N)CCCCN)C(=O)N[C@@H](CCCNC(=N)N)C(=O)N[C@@H](Cc1ccc(O)cc1)C(=O)N[C@@H](CCC(N)=O)C(=O)N[C@H](C(=O)N[C@H](C(=O)N[C@@H](C)C(=O)N[C@H](C(=O)N[C@@H](CCCCN)C(=O)N[C@@H](CO)C(=O)N[C@@H](CCC(=O)O)C(=O)O)[C@@H](C)O)[C@@H](C)O)[C@@H](C)O` [NS3 237-251]: the IC50 at DRB1*0802 was found to be 36 nM; at DRB1*1302 (setting [1]), 2620 nM; at DRB4*0101, 5.5 nM; against DRB1*1101 it was 807 nM; at DRB1*0404 it was 310 nM; against DRB3*0101, 19000 nM. The IC50 was found to be 638 nM on DRB1*1501; 110 nM at DRB1*0101; 1820 nM against DRB1*0301; 13 nM against DRB5*0101; 13 nM on DRB1*0401; 2990 nM on DRB1*0701. The IC50 at DRB1*0901 (setting [2]) came to 928 nM.

With `CSCC[C@H](NC(=O)[C@H](CCC(N)=O)NC(=O)[C@H](C)NC(=O)[C@H](Cc1ccc(O)cc1)NC(=O)[C@H](C)NC(=O)[C@H](CCCCN)NC(=O)CNC(=O)[C@H](CC(C)C)NC(=O)[C@H](CS)NC(=O)[C@H](C)NC(=O)[C@@H](NC(=O)[C@H](CCC(=O)O)NC(=O)[C@H](CCCNC(=N)N)NC(=O)[C@H](CC(C)C)NC(=O)[C@@H](N)CO)[C@@H](C)O)C(=O)N[C@@H](Cc1c[nH]c2ccccc12)C(=O)N[C@H](C(=O)O)[C@@H](C)O` [NS5 747-763], the IC50 against DRB1*0802 came to 551 nM; against DRB4*0101, 4660 nM; on DRB1*1101, 80 nM; against DRB1*0404, 111 nM; at DRB3*0101, 8310 nM; against DRB1*1501, 167 nM. Besides, the IC50 came out at 54 nM at DRB1*0101; 39 nM on DRB1*0405; 5740 nM against DRB1*0301; 2980 nM against DRB1*0701; 393 nM at DRB1*0901 (competitive inhibition of radiolabeled standard peptide, DRB1*0901, read-out: Binding Affinity (nM) DRB1*0901).

In the case of `CC[C@H](C)[C@H](NC(=O)[C@H](CC(C)C)NC(=O)[C@H](CCCCN)NC(=O)CN)C(=O)N[C@@H](Cc1c[nH]cn1)C(=O)N[C@@H](CCC(=O)O)C(=O)N[C@@H](Cc1c[nH]c2ccccc12)C(=O)N[C@@H](CS)C(=O)N[C@@H](CS)C(=O)N[C@@H](CCCNC(=N)N)C(=O)N[C@@H](CO)C(=O)N[C@@H](CS)C(=O)N[C@H](C(=O)N[C@@H](CC(C)C)C(=O)N1CCC[C@H]1C(=O)O)[C@@H](C)O` [NS1 305-319], the IC50 against DRB1*0802 is 7200 nM; at DRB1*1302 (setting [1]), 3190 nM; against DRB4*0101, 2040 nM; against DRB1*1101, 4400 nM; against DRB1*0404, 4390 nM; against DRB3*0101, 1240 nM. Further, the IC50 at DRB1*0101 was found to be 2600 nM; on DRB1*0405, 3500 nM; against DRB1*0301, 841 nM; against DRB5*0101, 6170 nM; against DRB1*0401, 1770 nM; at DRB1*0701 it was 1200 nM. Further, the IC50 on DRB1*0901 (setting [2]) was 11400 nM.
